Test results: patent US20120028288A1, “Method for Measuring Cell Motility and System Therefor” (priority 2005, published 2012)
“Also recorded” adds a separate entry of the source.

How the values were obtained:
[1] = tested on: eosinophils from normal, allergy/atopy and asthma patient donors; test: Chemotaxis analysis of eosinophils of allergy/atopy and asthma patients compared with normal subjects (TAXIScan; VD plot, CRT and CLT analysis)
[2] = tested on: eosinophils obtained from blood samples of normal subjects; test: Eosinophil chemotactic experiment toward various chemotactic factors (time-lapse tracking; VD plot, CRT and CLT analysis); conditions: for rate of cells having a high specific motility in the concentration gradient direction in the VD plot / Chemotaxis Lifetime (CLT) / migration duration time, in words / Chemotactic Response Time (CRT) / time course of migration start, in words: normal subject eosinophils; for rate of cells having a high specific motility in the concentration gradient direction in the VD plot: CCL3, CCL5 5 μM, CXCL12, fMLP, PGD2 1 μM, vs control without factor (N.C.); for Chemotaxis Lifetime (CLT) / migration duration time, in words / Chemotactic Response Time (CRT) / time course of migration start, in words: concentration gradient of factor; for Chemotactic Response Time (CRT) / time course of migration start, in words: ACR viewed at 5 and 45 minutes
Procedure: Blood samples were obtained from patients and normal subjects, after a confirmation of informed consent. The blood samples were subjected to hemolytic reaction by water treatment and centrifugal separation, repeated twice, and thereafter a magnetic cell separation method was conducted so as to separate eosinophil therefrom. MACS (Miltenyi Biotec GmbH, Germany) was used for the magnetic cell separation, and the separation was performed by the negative selection method using anti-human CD3, CD14, CD16, and CD19 antibody-labeled paramagnetic microbeads. The magnetic cell separation method was conducted pursuant to the manual of Miltenyi Biotec GmbH. The cells obtained were washed with PBS, and thereafter suspended in RPMI-HEPES culture medium containing 1% FCS at the concentration of 5×10^6 cells/ml, and used for the subsequent experiment.
Structural setting of the system and the measuring method were carried out according to the aforementioned procedure.
In the measurement, the observation support unit of the system was filled up with RPMI-HEPES medium containing 1% FCS, and maintained at 37° C. to have the cells and the chemotactic factor being injected, and thereafter, the state of the cells was subjected to the time-lapse imaging. […] Imaging was performed at time-lapse intervals of one minute, and twelve samples at the maximum per one holder were subjected to the imaging in parallel.
The aforementioned program was used for the identification and tracking of the cell. […] With this software, when a user highlighted an area in the image as an analysis target, the cells in the area were identified and tracking was executed. Automatic cell tracking was performed according to the following procedure; a positional change in the time-lapse image was corrected, and then a position of the cell being the closest in the adjacent time-frame photo was sequentially designated and stored. Since an error might be included in the automatic cell tracking, the migratory pathway of the cell being obtained was appropriately corrected based on a visual judgment by a human. […] According to the obtained migratory pathway information of the cells, one by one, time-series data such as the position, velocity, and directionality of the cells was acquired. In order to avoid exerting an effect of artificial bias on the data, a third person, who was not informed of the details of the experiment, conducted the cell identification and tracking works by using the present software.
VD plot (Velocity-Direction plot) was obtained by calculating median values, as to the values of the time-series data of the velocity and directionality of individual cells, plotting the median value of velocity on the vertical axis and the median value of directionality on the horizontal axis. A gate was set on the graph surface, indicating an index of the cellular chemotaxis, and a rate of the cells included in the gate was obtained. Mann-Whitney U-test was employed for a difference test concerning the rate of the cells.
In the calculation of Chemotactic Response Time (CRT) and of Chemotaxis Lifetime (CLT) of the cell, an Exponential Moving Average (EMA) was calculated based on time-series data of the cell migration velocity, and the cellular chemotaxis was defined by the state where the value of EMA exceeded a certain threshold. In other words, CRT was a time period from start of the measurement until the time when the EMA firstly exceeded the threshold, and an elapsed time from the time when EMA firstly exceeded the threshold until it fell below the threshold was CLT.

Row | Molecule | rate of cells that continued migration for five minutes or more (CLT analysis), patients compared to normal subjects ([1]; allergy/atopy patients and asthma patients vs normal subjects) | cell motility from VD plot, asthma patients (III) compared to normal subject (I) ([1]; eosinophils of asthma patients, PGD2 or fMLP 1 μM gradient) | CRT analysis: difference between patient groups and normal subjects ([1]; groups I, II, III) | rate of cells having a high specific motility in the concentration gradient direction in the VD plot [2] | Chemotaxis Lifetime (CLT) / migration duration time, in words [2] | Chemotactic Response Time (CRT) / time course of migration start, in words [2] | share of eosinophils that migrated according to the CRT analysis ([2]; normal subjects)
1 | CSCC[C@H](NC=O)C(=O)N[C@@H](CC(C)C)C(=O)N[C@@H](Cc1ccccc1)C(=O)O [fMLP, N-formyl-methionyl-leucyl-phenylalanine] | not found a significant difference | significant difference | not a large difference | little difference from the control | most of the cells stopped migration within 15 minutes; also recorded: relatively shorter than the other factors | started moving gradually as time advanced | about half
2 | CCL5: Recombinant Human RANTES (CCL5; Regulation upon Activation Normal T cell Express Sequence), purchased from PeproTech (protein, UniProt P13501 24-91, looked up) C-C motif chemokine 5: SPYSSDTTPCCFAYIARPLPRAHIKEYFYTSGKCSNPAVVFVTRKNRQVCANPEKKWVREYINSLEMS | – | – | – | little difference from the control | long lifetime tendency | hardly started migration; also recorded: turned up gradually after lapse of approximately one hour | –
3 | CCL3: Recombinant Human MIP-1 alpha (CCL3; Macrophage Inflammatory Protein-1 alpha), purchased from PeproTech (protein, UniProt P10147 24-92, looked up) C-C motif chemokine 3: SLAADTPTACCFSYTSRQIPQNFIADYFETSSQCSKPGVIFLTKRSRQVCADPSEEWVQKYVSDLELSA | – | – | – | high motility | short relative to CCL5 or CXCL12 | started moving gradually as time advanced | –
